Test results published in patent US11266743B2, “Peptide compositions and methods of use thereof” (priority 2017, dated 2022).
Square brackets hold non-standard residues; d marks the D form. Ends that are not written are not given here.

Experiments:
Assay type in all cases: cell-based
[1] = test system: Hela cells stably transfected with mCherry and GFP1-10; assay: Split GFP assay (GFP-11 delivery); conditions: for GFP fluorescence above background / GFP fluorescence level: 10 μM; for GFP-11 delivery: all concentrations and temperatures studied
Description: To test the ability of CPPs to deliver other cargoes, specifically a protease-sensitive peptide cargo, we modified the well-known split-GFP assay. CPPs were tested for the ability to deliver the polar 16-residue GFP-11 peptide across the membrane barrier. This peptide rescues the fluorescence of the cytosolic endogenous, non-fluorescent GFP1-10 protein. Here, we stably transfected Hela cells with a plasmid containing the full length mCherry and the non-fluorescent GFP1-10. Following incubation with CPP-GFP-11 constructs at multiple concentrations and temperatures for 30 minutes in serum free DMEM, cells were analyzed by flow cytometry for mCherry and GFP fluorescence (FIG. 17). Live cells expressing mCherry (˜50% of the total cells) were gated and their GFP fluorescence was analyzed. Unlike the luciferase splice correction assay where a single corrected mRNA transcript serves as template for many molecules of functional luciferase, the split GFP assay is stoichiometric; a single GFP-11 peptide can bind to a single GFP1-10 protein producing a finite fluorescent response.
Hela cells were transfected with p_mCherry-GFP1-10 (Addgene plasmid #78591) using LIPOFECTAMINE® 3000 (ThermoFisher). Single mCherry positive cells were sorted into 96-well plates using a BD™ FACSARIA™ cell sorter and colonies were maintained under G418 selection at […]. Stably transfected cells were plated in 12-well plates at 100,000 cells/well and grown overnight in complete DMEM. Cells were washed in PBS and incubated in 500 μl of CPP-GFP-11 solution at variable concentrations at 23° C. and 37° C. for 30 minutes. The CPP-GFP-11 solution was aspirated and 100 μl of 0.025% trypsin solution was added to each well. After detachment, cells were suspended in 500 μL of PBS+2% FBS and 20 mM HEPES. Cells were analyzed using a BD™ LSRII flow cytometer. Cells displaying a normal morphology were gated and first analyzed for mCherry fluorescence using the 543 nM laser. mCherry+ cells were used to generate a histogram of GFP fluorescence measured with the 488 nM laser.

[2] = test system: HeLa, RAW264.7, HepG2, and MCF-7 cells; assay: TAMRA delivery assay (flow cytometry, confocal microscopy); conditions: 0.5 μM CPP-TA + 4.5 μM CPP-C, 30 minutes at 4° C., 22° C., or 37° C.
Description: To determine the effect of the PNA cargo on delivery, we labeled CPPs, lacking the PNA705 cargo, with the fluorophore TAMRA on a C-terminal cysteine residue (CPP-TA) and measured delivery to multiple cell types. TAMRA-labelled CPPs, mixed with unlabeled CPPs at a 1:10 ratio in serum-free DMEM for a final concentration of 5 μM total peptide, was added to HeLa, RAW264.7, HepG2, and MCF-7 cells in 12-well cell culture plates and incubated for 30 minutes at 4° C., 22° C., or 37° C. prior to flow cytometric analysis (FIGS. 9-16). […] Delivery of TAMRA was verified by confocal microscopy for each cell type.
Hela, RAW264.7, HCT116, HepG2, and MCF-7 cells were plated in 12-well plates at 100,000 cells/well. After 24 hours, cells were gently washed in PBS, topped with 500 μl of CPP-TA solution containing 0.5 μM CPP-TA+4.5 uM CPP-C in sfDMEM without phenol red, and incubated for 30 min at either 4° C., 23° C., or 37° C. The incubation solution was aspirated and cells were treated with 100 μl 0.025% Trypsin for 3 minutes at 23° C. 500 μl DMEM containing 2% FBS, 125 nM Sytox Green, and 20 mM HEPES was used to suspend the cells. Cells were transferred to a filter-topped flow cytometry tube and analyzed on a BD™ LSR II flow cytometer. Cells displaying a normal morphology were gated and first analyzed for GFP fluorescence using the 488 nM laser. GFP negative cells were used to generate a histogram of TAMRA fluorescence, measured with the 543 nM laser.
Cells were treated as described above for the TAMRA delivery assay and immediately imaged to avoid artifacts resulting from fixation. The distribution of TAMRA and Sytox Green was analyzed using a confocal scanning Nikon Eclipse Ti2 inverted microscope using a 40× oil-immersion objective. Sytox Green was excited using the 488 nM laser and TAMRA was excited using the 543 nM laser.

Hela pTRE-LucIVS2 cells = assay: ALAMARBLUE toxicity assay of CPP-PNA705; conditions: 10 μM CPP-PNA705 conjugate, after 24 hours
Description: CPP-PNA705 cytotoxicity was assessed using several methods known in the art. A Lactate Dehydrogenase (LDH) assay (FIG. 5A) measured the acute cytotoxicity and detects LDH released by cells because of membrane damage resulting from exposure to the CPPs. An ALAMARBLUE® assay (FIG. 5B) and a Bicinchoninic Acid (BCA) Assay (FIG. 5C) both measure the impact of exposure after 24 hours. In the ALAMARBLUE®, assay some reduction in metabolic activity was detected in Hela705 cells treated with 20 μM CPP-PNA705 concentrations for 1 hour.
Hela pTRE-LucIVS2 cells were plated in 96-well plates at 10,000 cells/well. After 24 hours, cells were treated with CPP constructs for 1 Hr in sfDMEM at 37° C., washed in PBS, and allowed to recover for 24 hours in 100 μl complete media. 10 μl ALAMARBLUE® (ThermoFisher) was added to each well and cells were incubated fo4r 2 Hrs at 37° C. Reduction of ALAMARBLUE® was determined by fluorescence at […].

S. aureus = assay: Radial diffusion in the presence of RBCs; set-up: key: The ↑ represents the improvement in performance that would be desired for a viable in vivo antimicrobial peptide; ↓: The symbol represents a regression in desired behavior; *=p<0.05; **=p<0.01; ***=p<0.001; conditions: change versus parent sequence; paired t-test
Description: Underlay agarose was prepared by adding 5 g of low EEO agarose and 0.03 g of TSB to 500 mL of 10 mM phosphate buffer (pH=7.4). Overlay agarose was prepared by adding 5 g of low EEO agarose and 30 g of TSB to 500 mL of 10 mM phosphate buffer (pH=7.4). Both solutions were heated until the agarose melted and then were autoclaved. To a rectangular, one-well plate, 20 mL of underlay agarose, inoculated with 8×10^6 CFUs of bacteria, was added. A sterile, 96-well plate replicator from Sigma-Aldrich was set in the molten agarose and removed one the agarose solidified. Antibiotic was prepared at 4 times the final desired concentration. For the antibiotic standard, a serial dilution of 3:4 across a 96-well plate was performed followed by 1:4 dilution with PBS. Otherwise, the peptide was diluted to 20 μM with RBCs and/or serum to give between 2% (1×10^8 cells/mL) and 20% (1×10^9 cells/mL). Solutions were incubated with gentle shaking for 30 minutes at 37° C. […]. Overlay was added, and the plate was incubated upside down overnight. Surface growth was cleared, the plates were sterilized with 25% methanol and 5% acetic acid. Zones of inhibition were photographed and analyzed using ImageJ. (FIG. 21)
(§1) The engineered peptide sequences and their derivation from parent sequences is shown, along with the underlying hypothesis described for the first set of peptides (Table 4) and the second set (Table 5). We performed statistical testing for performance in antimicrobial assays in the presence and absence of RBCs, as well as for cytotoxicity. The broth dilution results were tested using a two sample t-test (N=6-22). The radial diffusion results were tested using a paired t-test (N=4). The cytotoxicity results were tested using a paired t-test (N=3). The ↑ represents the improvement in performance that would be desired for a viable in vivo antimicrobial peptide. This corresponds to a decrease in MIC values (increased potency) and decreased cytotoxicity. The symbol represents a regression in desired behavior. (*=p<0.05, **=p<0.01, ***=p<0.001).

human RBCs = assay: Hemolysis assay; set-up: key: The ↑ represents the improvement in performance that would be desired for a viable in vivo antimicrobial peptide; ↓: The symbol represents a regression in desired behavior; *=p<0.05; **=p<0.01; ***=p<0.001; conditions: change versus parent sequence; ↑ = improvement (decreased cytotoxicity); paired t-test
Description: Peptide was serially diluted in PBS starting at a concentration of 100 μM. The final volume of each peptide in each well was 50 μL. To each well, 50 μL of RBCs in PBS at 2×10^8 cells/mL was added. As a positive lysis control, 1% TRITON™ was used. The mixtures were incubated at 37° C. for 1 hour, after which they were centrifuged at 1000×g for 5 minutes. After centrifugation, 10 μL of supernatant was transferred to 90 μL of DI H2O in a fresh 96-well plate. The absorbance of released hemoglobin at 410 nm was recorded and the fractional hemolysis was calculated based on the 100% and 0% lysis controls. (FIGS. 22, 23, and 26)
as §1

Substance | Radial Diffusion vs. S. aureus (S. aureus) | Hemolysis (human RBCs) | further results
CPP-1(D)-GFP-11: D-amino acid version of CPP-1 attached to normal L-amino acid GFP-11 ([dR][dK][dK][dR][dW][dF][dR][dR][dR][dR][dP][dK][dW][dK][dK]RDHMVLHEYVNAAGIT) |  |  | D-form CPP versus L-form CPP, GFP-11 delivery [1]: outperformed CPP-1-GFP-11 under all other conditions
CPP-1-GFP-11: CPP-1 linked to the polar 16-residue GFP-11 peptide (SEQ ID NO: 12) (RKKRWFRRRRPKWKKRDHMVLHEYVNAAGIT) |  |  | GFP fluorescence above background ([1]; 37° C.): 44%; GFP fluorescence above background ([1]; room temperature): 72%
CPP-2-GFP-11: CPP-2 linked to the 16-residue GFP-11 peptide (SEQ ID NO: 12) (GRKKRWFRRRRMKWKKRDHMVLHEYVNAAGIT) |  |  | GFP fluorescence level [1]: background fluorescence levels
CPP-3-GFP-11: CPP-3 linked to the 16-residue GFP-11 peptide (SEQ ID NO: 12) (RIKRRFRRLRPKWKKRDHMVLHEYVNAAGIT) |  |  | GFP fluorescence level [1]: background fluorescence levels
GRKKRWFRRRRMKWKK [CPP-2] |  |  | TAMRA delivery (words, rank order) [2]: CPP-2»CPP-3=CPP-1>CPP-4>TAT=penetratin; GFP-11 delivery [1]: deliver GFP-11 to more cells than Tat and penetratin; reduction in metabolic activity (Hela pTRE-LucIVS2 cells): 10%
KKGWAKKLAFAFGKK [D-KON] | ↓Radial diffusion vs. |  | 
RIKRRFRRLRPKWKK [CPP-3] |  |  | TAMRA delivery (words, rank order) [2]: CPP-2»CPP-3=CPP-1>CPP-4>TAT=penetratin; GFP-11 delivery [1]: deliver GFP-11 to more cells than Tat and penetratin; reduction in metabolic activity (Hela pTRE-LucIVS2 cells): little effect
RRGWAFRRALAYGRR [D-GNS2] | ↑Radial diffusion vs. | ↓Hemolysis** | 
RRGWALRLVLAYGRR [RAT3] |  | ↓Hemolysis* | 
RRGWARRLAFAFAFGRR [RAT6] |  | ↓Hemolysis* | 
RRGWARRLAFAFGRR [D-RAT4] | ↑Radial Diffusion vs. |  | 
RRGWARRLAFAFGRR [RAT4] | ↑Radial Diffusion vs. | ↑Hemolysis* | 
RRGWARRLAFGRR [RAT7] |  | ↑Hemolysis** | 
RRGWARRLFFAYGRR [D-DBS1] | ↑Radial diffusion vs. | ↓Hemolysis* | 
RRGWARRLRLAFAFGRR [RAT5] | ↑Radial Diffusion vs. | ↓Hemolysis* | 
RRWARRLFFAYRR [RAT1] | ↑Radial Diffusion vs. |  | 
RRWNLALTLTYYRR [RAT2] |  | ↓Hemolysis* | 
Tat(D)-GFP-11: D-amino acid version of Tat attached to normal L-amino acid GFP-11 (G[dR][dK][dK][dR][dR][dQ][dR][dR][dR][dP][dP][dQ]RDHMVLHEYVNAAGIT) [reference compound] |  |  | GFP fluorescence ([1]; concentrations lower than 40 μM): just above background
